Measurements reported in article PMC6464118 (European journal of medicinal chemistry, 2019).

Tests used:
[1] = system: HIV-1 NL4-3 Nanoluc-sec virus; format: cell-based; conditions: for anti-HIV activity in words: HIV-1 NL4-3 replication in MT4 cells; for TI: CC50/EC50: CC50 (MT4) / EC50 (NL4-3)
[2] = system: bevirimat-resistant HIV viruses NL4-3-V370A; assay: Activity against bevirimat-resistant HIV virus NL4-3-V370A; format: cell-based

Structure (SMILES)	anti-HIV activity in words [1]	TI: CC50/EC50 [1]	other results
CC(C)(O)[C@@H]1CC[C@@](C)([C@H]2[C@@H](O)[C@H](O)[C@@]3(C)[C@@H]4[C@@H](O)C[C@H]5C(C)(C)[C@@H](O[C@@H]6OC[C@@H](O)[C@H](O)[C@H]6O)CC[C@@]56C[C@@]46CC[C@]23C)O1 [Compound 5, soulieoside N]	inactive	–	–
CC(=O)O[C@H]1[C@@H](OC(C)=O)[C@@]2(C)[C@@H]3CC[C@H]4C(C)(C)[C@@H](OC(=O)CCC(=O)O)CC[C@@]45C[C@@]35CC[C@@]23CO[C@@]2(C(C)(C)O)CC[C@](C)(O2)[C@@H]13 [Compound 13e, (20S,24S)-15β,16β-Diacetoxy-18,24;20,24-diepoxy-9,19-cyclolanostane-3β,25-diol 3-O-succinate]	–	> 5.2	–
CC(=O)O[C@H]1[C@@H](OC(C)=O)[C@@]2(C)[C@@H]3CC[C@H]4C(C)(C)[C@@H](O[C@@H]5OC[C@@H](O)[C@H](O)[C@H]5O)CC[C@@]45C[C@@]35CC[C@@]23CO[C@@]2(C(C)(C)O)CC[C@](C)(O2)[C@@H]13 [Compound 1, beesioside I]	–	> 17.2	–
CC(=O)O[C@H]1[C@@H](O)[C@@]2(C)[C@@H]3CC[C@H]4C(C)(C)[C@@H](O[C@@H]5OC[C@@H](O)[C@H](O)[C@H]5O)CC[C@@]45C[C@@]35CC[C@@]23CO[C@@]2(C(C)(C)O)CC[C@](C)(O2)[C@@H]13 [Compound 2, beesioside K]	–	> 8.6	–
CC1(C)[C@@H](O)CC[C@]23C[C@]24CC[C@]25CO[C@@]6(C(C)(C)O)CC[C@](C)(O6)[C@H]2[C@@H](O)[C@@H](O)[C@@]5(C)[C@@H]4CC[C@@H]13 [Compound 13d, (20S, 24S)-18,24;20,24-Diepoxy-9,19-cyclolanostane-3β, 15β, 16β, 25-tetraol]	inactive	–	–
CC(=O)O[C@H]1[C@@H](OC(C)=O)[C@@]2(C)[C@@H]3CC[C@H]4C(C)(C)[C@@H](O[C@@H]5OC[C@@H](O)[C@H](O)[C@H]5O)CC[C@@]45C[C@@]35CC[C@@]23CO[C@@](C)(CCC(=O)C(C)(C)O)[C@@H]13 [Compound 12, soulieoside P]	inactive	–	–
CC(=O)O[C@H]1[C@H](O)[C@H]([C@]2(C)CC[C@@H](C(C)(C)O)O2)[C@@]2(C)CC[C@@]34C[C@@]35CC[C@H](O[C@@H]3OC[C@@H](O)[C@H](O)[C@H]3O)C(C)(C)[C@@H]5CC[C@H]4[C@]12C [Compound 4, beesioside M]	–	> 8.2	–
CC(=O)O[C@H]1[C@@H]2O[C@@]3(C(C)(C)O)CC[C@](C)(O3)[C@@H]2[C@@]2(CO)CC[C@@]34C[C@@]35CC[C@H](O[C@@H]3OC[C@@H](O)[C@H](O)[C@H]3O)C(C)(C)[C@@H]5CC[C@H]4[C@]12C [Compound 9, (20S,24S)-15α-acetoxy-16β,24;20,24-diepoxy-3β-(β-D-xylopyranosyloxy)-9,19-cyclolanostane-18,25-diol]	inactive	–	–
CC(=O)O[C@H]1[C@@H](OC(C)=O)[C@@]2(C)[C@@H]3CC[C@H]4C(C)(C)[C@@H](OC(=O)CCC(C)(C)C(=O)O)CC[C@@]45C[C@@]35CC[C@@]23CO[C@@]2(C(C)(C)O)CC[C@](C)(O2)[C@@H]13 [Compound 13j, (20S, 24S)-15β,16β-Diacetoxy-18,24;20,24-diepoxy-9,19-cyclolanostane-3β, 25-diol 3-O-4',4'-dimethylglutarate]	–	> 104	–
CC(=O)O[C@H]1[C@@H](OC(C)=O)[C@@]2(C)[C@@H]3CC[C@H]4C(C)(C)[C@@H](O)CC[C@@]45C[C@@]35CC[C@@]23CO[C@@]2(C(C)(C)O)CC[C@](C)(O2)[C@@H]13 [Compound 13, (20S,24S)-15β, 16β-Diacetoxy-18,24;20,24-diepoxy-9,19-cyclolanostane-3β,25-diol]	inactive	–	–
CC(=O)O[C@H]1[C@@H](OC(C)=O)[C@@]2(C)[C@@H]3CC[C@H]4C(C)(C)[C@@H](OC(=O)COCC(=O)O)CC[C@@]45C[C@@]35CC[C@@]23CO[C@@]2(C(C)(C)O)CC[C@](C)(O2)[C@@H]13 [Compound 13m, (20S,24S)-15β, 16β-Diacetoxy-18,24;20,24-diepoxy-9,19-cyclolanostane-3β,25-diol 3-O-diglycolate]	–	> 41.7	–
CC(=O)O[C@H]1[C@@H](OC(C)=O)[C@@]2(C)[C@@H]3CC[C@H]4C(C)(C)[C@@H](OC(=O)CC(C)(C)C(=O)O)CC[C@@]45C[C@@]35CC[C@@]23CO[C@@]2(C(C)(C)O)CC[C@](C)(O2)[C@@H]13 [Compound 13g, (20S, 24S)-15β,16β-Diacetoxy-18,24;20,24-diepoxy-9,19-cyclolanostane-3β, 25-diol 3-O-3′,3′-dimethylsuccinate]	–	–	activity against bevirimat-resistant HIV viruses NL4-3-V370A [2]: no significant effects; fold more potent than 1 (anti-HIV activity) ([1]; relative to compound 1): approximately 100 fold
CC(=O)O[C@H]1[C@@H](OC(C)=O)[C@@]2(C)[C@@H]3CC[C@H]4C(C)(C)[C@@H](OC(C)=O)CC[C@@]45C[C@@]35CC[C@@]23CO[C@@]2(C(C)(C)O)CC[C@](C)(O2)[C@@H]13 [Compound 13a, (20S, 24S)-15β, 16β-Diacetoxy-18,24;20,24-diepoxy-9,19-cyclolanostane-25-hydroxy-3β-yl acetate]	–	> 16.4	–
CC(=O)O[C@H]1[C@@H](OC(C)=O)[C@@]2(C)[C@@H]3CC[C@H]4C(C)(C)[C@@H](OC(=O)CC5(CC(=O)O)CCCC5)CC[C@@]45C[C@@]35CC[C@@]23CO[C@@]2(C(C)(C)O)CC[C@](C)(O2)[C@@H]13 [Compound 13l, (20S,24S)-15β,16β-Diacetoxy-18,24;20,24-diepoxy-9,19-cyclolanostane-3β,25-diol 3-O-3′,3′-tetramethyleneglutarate]	–	> 12.6	–
CC1(C)[C@@H](O[C@@H]2OC[C@@H](O)[C@H](O)[C@H]2O)CC[C@]23C[C@]24CC[C@]25CO[C@@]6(C(C)(C)O)CC[C@](C)(O6)[C@H]2[C@@H](O)[C@@H](O)[C@@]5(C)[C@@H]4CC[C@@H]13 [Compound 1a, (20S,24S)-18,24;20,24-Diepoxy-9,19-cyclolanostane-3β, 15β, 16β,25-tetraol 3-O-β-D-xylopyrano-side]	less potent	> 5.2	–
CC(=O)O[C@H]1[C@H](O)[C@@]2(C)[C@@H]3CC[C@H]4C(C)(C)[C@@H](O[C@@H]5OC[C@@H](O)[C@H](O)[C@H]5O)CC[C@@]45C[C@@]35CC[C@@]23CO[C@@](C)(CCC(=O)C(C)(C)O)[C@@H]13 [Compound 11, soulieoside O]	inactive	–	–
CC(=O)O[C@H]1[C@@H](OC(C)=O)[C@@]2(C)[C@@H]3CC[C@H]4C(C)(C)[C@@H](OC(=O)CC(C)C(=O)O)CC[C@@]45C[C@@]35CC[C@@]23CO[C@@]2(C(C)(C)O)CC[C@](C)(O2)[C@@H]13 (stereo partly drawn) [Compound 13f, (RS-3′-20S, 24S)-15β,16β-Diacetoxy-18,24;20,24-diepoxy-9,19-cyclolanostane-3β, 25-diol 3-O-3′-methylsuccinate]	–	> 18.0	–
